These results are taken from BindingDB's records for patent US20250313563 (The Broad Institute, 2025).

Broadly, the pIC50 is the IC50 on a negative log10 scale, so that one unit is a factor of ten. Higher therefore signals a low IC50.

The structures appear in SMILES notation. pIC50: −log10 of the molar value. “And” between values parts separate entries of the source, which are not always exact repeats. Equal entries are not always repeated.

In experiment [1] the target is Glycogen synthase kinase-3 beta (Homo sapiens, UniProt P49841). Description: TR-FRET Assay. Here is the method: (§1) The assay was performed in a white, 384 well, low volume, flat bottom plate (Grenier). […] The kinase activity was quenched with 2 μL of 250 mM EDTA. A 10 μL volume of 40 nM Strepavidin-d2, 2 nM Tb2+-pSer641 antibody in TR-FRET Detection Buffer (Invitrogen) was then added.
On the technique in general: Time-resolved FRET reads energy transfer from a long-lived donor to a nearby acceptor.

For experiment [2], the target named is Glycogen synthase kinase-3 alpha (Homo sapiens, UniProt P49840). Description: TR-FRET Assay. Here is the method: as §1
Glycogen synthase kinase-3 alpha, sequence (P49840 whole entry): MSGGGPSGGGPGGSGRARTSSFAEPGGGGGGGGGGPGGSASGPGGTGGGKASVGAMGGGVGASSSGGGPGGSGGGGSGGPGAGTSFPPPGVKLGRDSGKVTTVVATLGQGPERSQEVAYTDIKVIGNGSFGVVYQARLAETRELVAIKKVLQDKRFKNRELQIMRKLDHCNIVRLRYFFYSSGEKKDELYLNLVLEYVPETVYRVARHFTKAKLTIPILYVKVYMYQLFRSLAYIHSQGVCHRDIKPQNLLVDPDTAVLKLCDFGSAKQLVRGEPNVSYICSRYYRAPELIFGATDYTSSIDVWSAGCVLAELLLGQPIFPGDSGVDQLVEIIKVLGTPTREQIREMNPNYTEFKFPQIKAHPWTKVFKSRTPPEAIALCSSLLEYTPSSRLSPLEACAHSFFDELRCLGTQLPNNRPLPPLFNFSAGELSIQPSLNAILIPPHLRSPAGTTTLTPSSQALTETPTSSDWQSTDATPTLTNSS

Glycogen synthase kinase-3 beta, sequence (P49841 whole entry): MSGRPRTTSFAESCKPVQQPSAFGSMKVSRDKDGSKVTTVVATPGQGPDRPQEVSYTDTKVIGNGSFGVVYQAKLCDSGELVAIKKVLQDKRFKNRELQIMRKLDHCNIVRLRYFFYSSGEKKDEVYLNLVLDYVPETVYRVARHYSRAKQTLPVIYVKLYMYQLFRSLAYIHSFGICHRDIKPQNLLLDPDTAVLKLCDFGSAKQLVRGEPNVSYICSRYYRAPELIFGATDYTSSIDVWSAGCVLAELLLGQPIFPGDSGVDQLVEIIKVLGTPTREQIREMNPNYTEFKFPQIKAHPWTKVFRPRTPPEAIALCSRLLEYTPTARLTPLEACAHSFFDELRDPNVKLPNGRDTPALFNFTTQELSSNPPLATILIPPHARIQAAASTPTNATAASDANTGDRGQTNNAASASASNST

In the case of `CC1(C)CC(=O)C2=C(C1)NC1N=NC(C3(C(F)(F)F)CC3)=C1C21CCc2c(F)cccc21` (stereo not given) [US20250313563, Compound 810591], the pIC50 in experiment [1] and in experiment [2] was 6.00 to 7.00 throughout.

With `CCC1(c2ccccc2)C2=C(N=NC2)NC2=C1C(=O)CC1(CCC1)C2` (stereo not given) [US20250313563, Compound 811555], the pIC50 in experiment [1] and in experiment [2] was 6.00 to 7.00 each time.

With `CC1N=NC2=C1C(C)(c1cccc(C(F)(F)F)c1)C1=C(CC(C)(C)CC1=O)N2` (stereo not given) [US20250313563, Compound 811556], the pIC50 in experiment [1] and in experiment [2] was above 7.00 throughout.

Consider `CC[C@@]1(c2cccc(C3CC3)c2)C2=CN=NC2NC2=C1C(=O)CC(C)(C)C2` (stereo not given in full) [US20250313563, Compound 811557], for which the negative logarithm of the IC50 (pIC50) was > 7.00 and 5.30 to 6.00 in experiment [1]; > 7.00 and 6.00 to 7.00 in experiment [2].

Regarding `CC[C@@]1(c2cccc(C3CC3)c2)C2=CN=NC2NC2=C1C(=O)CC(C)(C)C2` (stereo not given in full) [US20250313563, Compound 811558], the pIC50 in experiment [1] is below 5.30; in experiment [2], 5.30 to 6.00.

On to `CC[C@]1(c2cccc(OC)c2)C2=CN=NC2NC2=C1C(=O)CC(C)(C)C2` (stereo not given in full) [US20250313563, Compound 811561], for which the values for the pIC50 in experiment [1] and in experiment [2] were below 5.30 and 5.30 to 6.00, respectively.

Regarding `CC[C@]1(c2cccc(OC(C)C)c2)C2=CN=NC2NC2=C1C(=O)CC(C)(C)C2` (stereo not given in full) [US20250313563, Compound 811564], the pIC50 in experiment [1] and in experiment [2] was above 7.00 throughout.

`CC[C@]1(c2cccc(-c3cnn(C)c3)c2)C2=C(CC(C)(C)CC2=O)NC2N=NC(C(F)(F)F)=C21` (stereo not given in full) [US20250313563, Compound 811565]: the negative logarithm of the IC50 (pIC50) in experiment [1] and in experiment [2] was above 7.00 each time.

As for `CC[C@@]1(c2cccc(-c3cnn(C)c3)c2)C2=C(CC(C)(C)CC2=O)NC2N=NC(C(F)(F)F)=C21` (stereo not given in full) [US20250313563, Compound 811567], the negative-log IC50 (pIC50) in experiment [1] and in experiment [2] was 6.00 to 7.00 throughout.

As to `CC(C)(C)CC1=C2C(N=N1)NC1=C(C(=O)CC(C)(C)C1)[C@]21CCCc2ccccc21` (stereo not given in full) [US20250313563, Compound 811595], the pIC50 in experiment [1] was above 7.00; in experiment [2] it was 6.00 to 7.00.

For `CC(C)(C)CC1=C2C(N=N1)NC1=C(C(=O)CC(C)(C)C1)[C@@]21CCCc2ccccc21` (stereo not given in full) [US20250313563, Compound 811596], the pIC50 in experiment [1] was 6.00 to 7.00; in experiment [2] it was 5.30 to 6.00.

As to `CCC1(c2cccc(-c3cnn(C)c3)c2)C2=CN=NC2NC2=C1C(=O)CC(C)C2` (stereo not given) [US20250313563, Compound 816752], the negative logarithm of the IC50 (pIC50) was 5.30 to 6.00 in experiment [1] and above 7.00 in experiment [2].

Regarding `CC1(C)CC(=O)C2=C(C1)NC1=C(CN=N1)C21CCc2c(Cl)cccc21` (stereo not given) [US20250313563, Compound 816795], the values for the pIC50 in experiment [1] and in experiment [2] were 6.00 to 7.00 and above 7.00, respectively.

In the case of `CCC1(c2ccccc2)C2=C(N=NC2)NC2=C1C(=O)CC(C)(C(F)(F)F)C2` (stereo not given) [US20250313563, Compound 816796], the pIC50 was 5.30 to 6.00 in experiment [1] and 6.00 to 7.00 in experiment [2].

For `CC1(C)CC(=O)C2=C(C1)NC1=C(CN=N1)[C@@]2(C)c1cc(C(F)(F)F)ccc1F` [US20250313563, Compound 816797], the results for the pIC50 in experiment [1] and in experiment [2] were below 5.30 and 5.30 to 6.00, respectively.

Consider `CC1(C)CC(=O)C2=C(C1)NC1=C(CN=N1)[C@]2(C)c1cc(C(F)(F)F)ccc1F` [US20250313563, Compound 816798], for which the results for the pIC50 in experiment [1] and in experiment [2] were 6.00 to 7.00 and above 7.00, respectively.

As to `CC[C@@]1(c2cccc(N3CCCCC3)c2)C2=C(CC(C)(C)CC2=O)NC2N=NC(C(F)(F)F)=C21` (stereo not given in full) [US20250313563, Compound 816799], the pIC50 in experiment [1] was 5.30 to 6.00; in experiment [2], 6.00 to 7.00.

As to `CC[C@]1(c2cccc(N3CCCCC3)c2)C2=C(CC(C)(C)CC2=O)NC2N=NC(C(F)(F)F)=C21` (stereo not given in full) [US20250313563, Compound 816800], the negative logarithm of the IC50 (pIC50) in experiment [1] and in experiment [2] was above 7.00 each time.

For the molecule `CC1(C)CC(=O)C2=C(C1)NC1N=NC(CC(F)(F)F)=C1[C@@]21CCc2c(F)cccc21` (stereo not given in full) [US20250313563, Compound 816837], the negative-log IC50 (pIC50) in experiment [1] was 6.00 to 7.00; in experiment [2], 5.30 to 6.00.

On to `CC1(C)CC(=O)C2=C(C1)NC1N=NC(CC(F)(F)F)=C1[C@]21CCc2c(F)cccc21` (stereo not given in full) [US20250313563, Compound 816838], for which the pIC50 in experiment [1] and in experiment [2] was 6.00 to 7.00 each time.

As to `CC1(C)CC(=O)C2=C(C1)NC1N=NC(C3(C(F)(F)F)CC3)=C1[C@]21CCc2c(F)cccc21` (stereo not given in full) [US20250313563, Compound 816840], the negative-log IC50 (pIC50) is 6.00 to 7.00 in experiment [1] and 5.30 to 6.00 in experiment [2].

Consider `CCC1(c2cccc(-c3cnn(C)c3)c2)C2=CN=NC2NC2=C1C(=O)CC(C)(C)C2` (stereo not given) [US20250313563, Compound 816871], for which the pIC50 in experiment [1] is 6.00 to 7.00; in experiment [2], above 7.00.

For the molecule `CC[C@@]1(c2ccccc2)C2=CN=NC2NC2=C1C(=O)C[C@](C)(COC)C2` (stereo not given in full) [US20250313563, Compound 816873], the pIC50 in experiment [1] is 5.30 to 6.00; in experiment [2] it was 6.00 to 7.00.

Take `CC[C@]1(c2ccccc2)C2=CN=NC2NC2=C1C(=O)C[C@](C)(COC)C2` (stereo not given in full) [US20250313563, Compound 816875]: the pIC50 in experiment [1] was 5.30 to 6.00; in experiment [2], 6.00 to 7.00.

For the molecule `CC[C@]1(c2ccccc2)C2=CN=NC2NC2=C1C(=O)C[C@]1(CCCOC1)C2` (stereo not given in full) [US20250313563, Compound 816878], the negative-log IC50 (pIC50) in experiment [1] is 5.30 to 6.00; in experiment [2] it was 6.00 to 7.00.

For `CC[C@]1(c2ccccc2)C2=CN=NC2NC2=C1C(=O)C[C@@]1(CCCOC1)C2` (stereo not given in full) [US20250313563, Compound 816879], the pIC50 in experiment [1] and in experiment [2] was 6.00 to 7.00 throughout.

Regarding `CC[C@@]1(c2ccccc2)C2=CN=NC2NC2=C1C(=O)C[C@]1(CCOC1)C2` (stereo not given in full) [US20250313563, Compound 816881], the negative logarithm of the IC50 (pIC50) in experiment [1] is 5.30 to 6.00; in experiment [2], 6.00 to 7.00.

Regarding `CC[C@]1(c2ccccc2)C2=CN=NC2NC2=C1C(=O)C[C@]1(CCOC1)C2` (stereo not given in full) [US20250313563, Compound 816884], the figures for the pIC50 in experiment [1] and in experiment [2] were 5.30 to 6.00 and 6.00 to 7.00, respectively.

As to `CC[C@]1(c2cccc(N3CCOCC3)c2)C2=C(CC(C)(C)CC2=O)NC2N=NC(C(F)(F)F)=C21` (stereo not given in full) [US20250313563, Compound 816885], the pIC50 in experiment [1] and in experiment [2] was above 7.00 in each case.

`CC[C@@]1(c2cccc(N3CCOCC3)c2)C2=C(CC(C)(C)CC2=O)NC2N=NC(C(F)(F)F)=C21` (stereo not given in full) [US20250313563, Compound 816886]: the pIC50 in experiment [1] and in experiment [2] was 5.30 to 6.00 in each case.

`CCC1(c2cccc(CN3CCCCC3)c2)C2=CN=NC2NC2=C1C(=O)CC(C)(C)C2` (stereo not given) [US20250313563, Compound 819560]: the values for the pIC50 in experiment [1] and in experiment [2] were below 5.30 and 5.30 to 6.00, respectively.

Turning to `CCC1(c2cccc(S(C)(=O)=O)c2)C2=CN=NC2NC2=C1C(=O)CC(C)(C)C2` (stereo not given) [US20250313563, Compound 819561], the pIC50 in experiment [1] and in experiment [2] was above 7.00 throughout.

Regarding `CC1(C)CC(=O)C2=C(C1)NC1=C(CN=N1)C2(C)CCc1ccccc1` (stereo not given) [US20250313563, Compound 819562], the pIC50 in experiment [1] was below 5.30; in experiment [2], 5.30 to 6.00.

For the molecule `CCC1(CCc2ccccc2)C2=C(N=NC2)NC2=C1C(=O)CC(C)(C)C2` (stereo not given) [US20250313563, Compound 819563], the pIC50 in experiment [1] is below 5.30; in experiment [2] it was 5.30 to 6.00.

On to `CCC1(c2cccc(C(F)F)c2)C2=CN=NC2NC2=C1C(=O)CC(C)(C)C2` (stereo not given) [US20250313563, Compound 819564], for which the pIC50 in experiment [1] and in experiment [2] was above 7.00 in each case.
